Where only a bound is given, the exact number is not on record here.

The target in one data set is T1, Replicase polyprotein 1ab (Severe acute respiratory syndrome coronavirus 2, UniProt P0DTD1). The experiment in a line: Inhibition of SARS-CoV-2 3CL protease expressed in Escherichia coli BL21(DE3) cells using DABCYL-KTSAVLQSGFRKM-EDANS as substrate preincubated for 30 mins followed by substrate addition and measured after 15 mins by FRET assay.
Details: not given
On to `CC(C)C[C@H](NC(=O)[C@@H](NC(=O)OC(C)(C)C)C(C)C)C(=O)N[C@H](C=O)C[C@@H]1CCNC1=O`, for which the IC50 is 0.0007 µM.
On the same count and under the same terms, the same measure for `CC(C)[C@H](NC(=O)OC(C)(C)C)C(=O)N1CCC[C@H]1C(=O)N[C@H](C=O)C[C@@H]1CCNC1=O`: 0.00623 µM; for `CC(C)[C@H](NC(=O)OC(C)(C)C)C(=O)N1CCCC[C@H]1C(=O)N[C@H](C=O)C[C@@H]1CCNC1=O`: 3.35 µM.
Still for that read-out and setting: the same measure for `C[C@H](OC(C)(C)C)[C@H](NC(=O)OC(C)(C)C)C(=O)N1CCC[C@H]1C(=O)N[C@H](C=O)C[C@@H]1CCNC1=O`: 0.0053 µM; for `CC(C)[C@H](NC(=O)OC(C)(C)C)C(=O)N1C[C@H](OC(C)(C)C)C[C@H]1C(=O)N[C@H](C=O)C[C@@H]1CCNC1=O`: 0.0025 µM.
Still for that read-out and setting: the result for `CC(C)[C@H](NC(=O)OC(C)(C)C)C(=O)N1C[C@@H]2CCC[C@@H]2[C@H]1C(=O)N[C@H](C=O)C[C@@H]1CCNC1=O` reads 0.005 µM; that for `CC(C)[C@H](NC(=O)OC(C)(C)C)C(=O)N1C[C@@H](C)C[C@H]1C(=O)N[C@H](C=O)C[C@@H]1CCNC1=O`, 0.00047 µM; that for `CO[C@H]1C[C@@H](C(=O)N[C@H](C=O)C[C@@H]2CCNC2=O)N(C(=O)[C@@H](NC(=O)OC(C)(C)C)C(C)C)C1`, 0.00024 µM.

Tested on in another data set: not listed separately
The experiment in a line: Inhibition of MERS 3CL protease expressed in Escherichia coli BL21(DE3) cells using DABCYL-KTSAVLQSGFRKM-EDANS as substrate preincubated for 30 mins followed by substrate addition and measured after 30 mins by FRET assay. Details: species or system Middle East respiratory syndrome-related coronavirus.
Details: not given
In the case of `CC(C)C[C@H](NC(=O)[C@@H](NC(=O)OC(C)(C)C)C(C)C)C(=O)N[C@H](C=O)C[C@@H]1CCNC1=O`, the IC50 turned out to be 0.02 nM.
On the same count and under the same terms, the same measure for `CC(C)[C@H](NC(=O)OC(C)(C)C)C(=O)N1CCC[C@H]1C(=O)N[C@H](C=O)C[C@@H]1CCNC1=O`: 0.02 nM; for `C[C@H](OC(C)(C)C)[C@H](NC(=O)OC(C)(C)C)C(=O)N1CCC[C@H]1C(=O)N[C@H](C=O)C[C@@H]1CCNC1=O`: 0.022 nM; for `CC(C)[C@H](NC(=O)OC(C)(C)C)C(=O)N1C[C@H](OC(C)(C)C)C[C@H]1C(=O)N[C@H](C=O)C[C@@H]1CCNC1=O`: 26 nM.
On the same count and under the same terms, the same measure for `CC(C)[C@H](NC(=O)OC(C)(C)C)C(=O)N1C[C@@H]2CCC[C@@H]2[C@H]1C(=O)N[C@H](C=O)C[C@@H]1CCNC1=O`: 143 nM; for `CC(C)[C@H](NC(=O)OC(C)(C)C)C(=O)N1C[C@@H](C)C[C@H]1C(=O)N[C@H](C=O)C[C@@H]1CCNC1=O`: 2.33 nM; for `CO[C@H]1C[C@@H](C(=O)N[C@H](C=O)C[C@@H]2CCNC2=O)N(C(=O)[C@@H](NC(=O)OC(C)(C)C)C(C)C)C1`: 0.007 nM.

The test system of the next data set is Human coronavirus 229E. In words: microbe, parasite or virus in culture. The conditions noted are these: BEAS-2B.
`CC(C)C[C@H](NC(=O)[C@@H](NC(=O)OC(C)(C)C)C(C)C)C(=O)N[C@H](C=O)C[C@@H]1CCNC1=O`: it took 2.3 µM to reach a half-maximal effect (EC50).
The same measure, in the same setting: the result for `CC(C)[C@H](NC(=O)OC(C)(C)C)C(=O)N1CCC[C@H]1C(=O)N[C@H](C=O)C[C@@H]1CCNC1=O` reads greater than 17.9 µM; that for `CC(C)[C@H](NC(=O)OC(C)(C)C)C(=O)N1C[C@H](OC(C)(C)C)C[C@H]1C(=O)N[C@H](C=O)C[C@@H]1CCNC1=O`, greater than 48.2 µM.
`CC(C)[C@H](NC(=O)OC(C)(C)C)C(=O)N1C[C@@H]2CCC[C@@H]2[C@H]1C(=O)N[C@H](C=O)C[C@@H]1CCNC1=O`: the EC50 came out at 0.24 µM.
On to `CO[C@H]1C[C@@H](C(=O)N[C@H](C=O)C[C@@H]2CCNC2=O)N(C(=O)[C@@H](NC(=O)OC(C)(C)C)C(C)C)C1`, for which the concentration giving a half-maximal response (EC50) was greater than 3.6 µM.

Another data set concerns the target T1, Replicase polyprotein 1ab. In words: Covalent binding affinity to SARS-CoV-2 3CL protease expressed in Escherichia coli BL21(DE3) cells after 30 mins by FRET assay.
Details: not given
`CC(C)[C@H](NC(=O)OC(C)(C)C)C(=O)N1C[C@@H]2CCC[C@@H]2[C@H]1C(=O)N[C@H](C=O)C[C@@H]1CCNC1=O` displayed a Ki of 0.0032 µM.

The subject of the next data set is SARS-CoV-2.
Assay: not given
Conditions: Severe acute respiratory syndrome coronavirus 2, […], Calu-3, 48 h.
`CC(C)[C@H](NC(=O)OC(C)(C)C)C(=O)N1C[C@@H]2CCC[C@@H]2[C@H]1C(=O)N[C@H](C=O)C[C@@H]1CCNC1=O` displayed an EC50 of 0.449 µM.

Another data set addresses Replicase polyprotein 1ab (Severe acute respiratory syndrome coronavirus 2) (UniProt P0DTD1).
Assay: not given
The conditions noted are these: dose 40.0 µM, time 30.0 min.
In the case of `CC(C)[C@H](NC(=O)OC(C)(C)C)C(=O)N1C[C@@H]2CCC[C@@H]2[C@H]1C(=O)N[C@H](C=O)C[C@@H]1CCNC1=O`, the thermal shift (ΔTm) came out at 4 °C.

For another data set, the system named is SARS-CoV-2. In words: microbe, parasite or virus in culture. The conditions noted are these: Severe acute respiratory syndrome coronavirus 2, […], Vero C1008.
In the case of `CC(C)C[C@H](NC(=O)[C@@H](NC(=O)OC(C)(C)C)C(C)C)C(=O)N[C@H](C=O)C[C@@H]1CCNC1=O`, the response was half-maximal at 40.1 µM (EC50).
Molecule `CC(C)[C@H](NC(=O)OC(C)(C)C)C(=O)N1CCC[C@H]1C(=O)N[C@H](C=O)C[C@@H]1CCNC1=O` showed an EC50 of 22.5 µM.
As for `CC(C)[C@H](NC(=O)OC(C)(C)C)C(=O)N1CCCC[C@H]1C(=O)N[C@H](C=O)C[C@@H]1CCNC1=O`, the EC50 was greater than 100 µM.
The same measure, in the same setting: the same measure for `C[C@H](OC(C)(C)C)[C@H](NC(=O)OC(C)(C)C)C(=O)N1CCC[C@H]1C(=O)N[C@H](C=O)C[C@@H]1CCNC1=O`: 22.9 µM; for `CC(C)[C@H](NC(=O)OC(C)(C)C)C(=O)N1C[C@H](OC(C)(C)C)C[C@H]1C(=O)N[C@H](C=O)C[C@@H]1CCNC1=O`: 33.4 µM.
`CC(C)[C@H](NC(=O)OC(C)(C)C)C(=O)N1C[C@@H]2CCC[C@@H]2[C@H]1C(=O)N[C@H](C=O)C[C@@H]1CCNC1=O` showed an EC50 of 5.3 µM.
The same measure, in the same setting: the result for `CC(C)[C@H](NC(=O)OC(C)(C)C)C(=O)N1C[C@@H](C)C[C@H]1C(=O)N[C@H](C=O)C[C@@H]1CCNC1=O` reads 47.2 µM; that for `CO[C@H]1C[C@@H](C(=O)N[C@H](C=O)C[C@@H]2CCNC2=O)N(C(=O)[C@@H](NC(=O)OC(C)(C)C)C(C)C)C1`, 23.6 µM.

In the next data set the test system is Middle East respiratory syndrome-related coronavirus. In words: microbe, parasite or virus in culture. The conditions noted are these: Vero C1008, 96 h.
Molecule `CC(C)C[C@H](NC(=O)[C@@H](NC(=O)OC(C)(C)C)C(C)C)C(=O)N[C@H](C=O)C[C@@H]1CCNC1=O` had an EC50 of 1.58 µM.
Same read-out and setting: the same measure for `CC(C)[C@H](NC(=O)OC(C)(C)C)C(=O)N1CCC[C@H]1C(=O)N[C@H](C=O)C[C@@H]1CCNC1=O`: 4.56 µM.
Same read-out and setting: the same measure for `CC(C)[C@H](NC(=O)OC(C)(C)C)C(=O)N1C[C@H](OC(C)(C)C)C[C@H]1C(=O)N[C@H](C=O)C[C@@H]1CCNC1=O`: 33.6 µM.
Still for that read-out and setting: the result for `CO[C@H]1C[C@@H](C(=O)N[C@H](C=O)C[C@@H]2CCNC2=O)N(C(=O)[C@@H](NC(=O)OC(C)(C)C)C(C)C)C1` reads 0.58 µM.

The next data set deals with SARS-CoV-2. The experiment in a line: microbe, parasite or virus in culture. Conditions: Severe acute respiratory syndrome coronavirus 2, […], Vero C1008, 72 h.
Consider `CC(C)C[C@H](NC(=O)[C@@H](NC(=O)OC(C)(C)C)C(C)C)C(=O)N[C@H](C=O)C[C@@H]1CCNC1=O`, for which the EC50 stood at 3.6 µM.
`CC(C)[C@H](NC(=O)OC(C)(C)C)C(=O)N1CCC[C@H]1C(=O)N[C@H](C=O)C[C@@H]1CCNC1=O`: the EC50 was 16 µM.
As to `CC(C)[C@H](NC(=O)OC(C)(C)C)C(=O)N1CCCC[C@H]1C(=O)N[C@H](C=O)C[C@@H]1CCNC1=O`, it took 5.83 µM to reach a half-maximal effect (EC50).
Still for that read-out and setting: the result for `C[C@H](OC(C)(C)C)[C@H](NC(=O)OC(C)(C)C)C(=O)N1CCC[C@H]1C(=O)N[C@H](C=O)C[C@@H]1CCNC1=O` reads 1.86 µM; that for `CC(C)[C@H](NC(=O)OC(C)(C)C)C(=O)N1C[C@H](OC(C)(C)C)C[C@H]1C(=O)N[C@H](C=O)C[C@@H]1CCNC1=O`, 3.4 µM; that for `CC(C)[C@H](NC(=O)OC(C)(C)C)C(=O)N1C[C@@H]2CCC[C@@H]2[C@H]1C(=O)N[C@H](C=O)C[C@@H]1CCNC1=O`, 0.21 µM.
Turning to `CC(C)[C@H](NC(=O)OC(C)(C)C)C(=O)N1C[C@@H](C)C[C@H]1C(=O)N[C@H](C=O)C[C@@H]1CCNC1=O`, it took 16.9 µM to reach a half-maximal effect (EC50).
Same read-out and setting: the same measure for `CO[C@H]1C[C@@H](C(=O)N[C@H](C=O)C[C@@H]2CCNC2=O)N(C(=O)[C@@H](NC(=O)OC(C)(C)C)C(C)C)C1`: 8.7 µM.

Tested on in a further data set: not listed separately
In words: Selectivity index, ratio of CC50 for human BEAS2B cells to EC50 for antiviral activity against HCoV229E infected in BEAS-2B cells. It counts as toxicity, cell-based. Conditions: read-out: Ratio CC50/EC50.
For the molecule `CC(C)C[C@H](NC(=O)[C@@H](NC(=O)OC(C)(C)C)C(C)C)C(=O)N[C@H](C=O)C[C@@H]1CCNC1=O`, the selectivity ratio is greater than 30.1.

A further data set relates to BEAS-2B. The experiment in a line: Cytotoxicity against human BEAS-2B cells assessed as reduction in cell viability. It is filed as toxicity, cell-based.
Details: not given
As for `CC(C)C[C@H](NC(=O)[C@@H](NC(=O)OC(C)(C)C)C(C)C)C(=O)N[C@H](C=O)C[C@@H]1CCNC1=O`, the CC50 came to 70.5 µM.
Same read-out and setting: the same measure for `CC(C)[C@H](NC(=O)OC(C)(C)C)C(=O)N1CCC[C@H]1C(=O)N[C@H](C=O)C[C@@H]1CCNC1=O`: 17.9 µM; for `CC(C)C[C@H](NC(=O)OCc1ccccc1)C(=O)N[C@@H](C[C@@H]1CCNC1=O)C(O)S(=O)(=O)O` (stereo not given in full): greater than 100 µM; for `CC(C)[C@H](NC(=O)OC(C)(C)C)C(=O)N1C[C@H](OC(C)(C)C)C[C@H]1C(=O)N[C@H](C=O)C[C@@H]1CCNC1=O`: 48.2 µM.
In the case of `CC(C)[C@H](NC(=O)OC(C)(C)C)C(=O)N1C[C@@H]2CCC[C@@H]2[C@H]1C(=O)N[C@H](C=O)C[C@@H]1CCNC1=O`, the CC50 worked out at 28.4 µM.
On the same count and under the same terms, the same measure for `CO[C@H]1C[C@@H](C(=O)N[C@H](C=O)C[C@@H]2CCNC2=O)N(C(=O)[C@@H](NC(=O)OC(C)(C)C)C(C)C)C1`: 3.6 µM.

By IC50 is commonly meant the concentration that inhibits the measured activity by half. High values mean lower potency, low ones higher potency. By EC50 is commonly meant the concentration that produces a half-maximal response. Read a high EC50 as a less potent agent. A word on the ΔTm: it is the shift of the melting midpoint relative to a reference. Usually CC50 stands for the concentration giving 50% cytotoxicity.
